Data from patent US20030068385A1, “Accelerated action fatty acid (AAFA) promotes health of normal tissues and minimizes the toxic side effects of chemotherapy” (priority 2001, published 2003).
Where a name gives a salt, the structure may show the parent alone.

Experiments:
[1] = Body weight gain during CPT-11 treatment on AAFA diets (Example 1); assay type: in vivo; details: male Swiss mice; 0-3% AAFA diets; CPT-11 60 mg/kg IV once each four days for 2 weeks
Description: 40 male Swiss mice, 6 weeks old, were obtained and earmarked for unique identification. Mice were housed 5/cage in Laboratory Animal Resources facilities. After 24 hours acclimation, mice were weighed and the food was changed to one of four defined diets. The AIN-76 based, 10% total fat diets contained: 0% AAFA+10% corn oil, 1% AAFA+9% corn oil, 2% AAFA+8% corn oil or 3% AAFA+7% corn oil. Two cages (10 mice) were designated to consume each diet. All mice were weighed three times weekly throughout the experiment.
Mice consumed the diet for 2 weeks then treatment with CPT-11 commenced for half of the mice (1 cage of 5 mice) on each diet. CPT-11 was administered at 60 mg/kg body weight, IV in a lateral tail vein, once each four days for 2 weeks. Control mice received an equivalent volume of the CPT-11 vehicle.

[2] = Fecal water content (Example 1); assay type: in vivo; details: Swiss mice treated with CPT-11 60 mg/kg IV; compared with mice not treated with CPT-11; not significant by ANOVA
Description: (§1) Mice were killed 24 hours after the last CPT-11 treatment. At necropsy, mice were weighed, anesthesized and blood was drawn via cardiac puncture. Peripheral blood was placed in an EDTA-containing tube and sent to Laboratory Animal Resources for complete blood counts. The liver, spleen, testes and kidneys were removed, weighed, then part of each organ was fixed in Omnifix® and a part was quick frozen in liquid nitrogen. The brain was removed and frozen in liquid nitrogen. The colon was resected, split open longitudinally and placed serosal side down on a card. Feces were removed from the colon, placed in a tared pan and weighed, then placed in a 100° C. vacuum oven for drying to constant weight. The colon and a section of duodenum were fixed in Omnifix®. The fixed colon and duodenum were oriented in cassettes then processed to paraffin blocks. Paraffin sections were cut 4 μm thick, histological slides of the colon and duodenum were prepared and stained with H & E or periodic acid-Schiff stain.
The initial wet weight and final constant weight of the dried feces was used to calculate the % of water in the feces of each mouse as an assay of intestinal function. […] Thus, the treatment helped return the values closer to control (no CPT-11 treatment) group values.

[3] = system: duodenum crypts; assay: Apoptotic figures in the duodenum (Example 1); assay type: in vivo; details: Swiss mice, CPT-11 60 mg/kg IV; two way ANOVA
Description: as §1
The number of apoptotic cells found in 10 complete, midaxially sectioned duodenum crypts was counted as an indication of intestinal damage. […] Thus, the treatment helped return the values closer to control (no CPT-11 treatment) group values.

[4] = Liver weight as percent of body weight (Example 1); assay type: in vivo; details: Swiss mice treated with CPT-11; compared with mice not treated with CPT-11
Description: as §1
The weight of the liver was expressed as a percent of body weight. […] Thus, the treatment returned the values to control (no CPT-11 treatment) group values.

[5] = Blood counts: WBC, RBC, hematocrit (Example 1); assay type: in vivo; details: Swiss mice treated with CPT-11; AAFA prior to and during CPT-11
Description: as §1

[6] = system: peripheral blood erythrocytes; assay: Micronuclei and polychromataphilic erythrocytes in peripheral blood; assay type: in vivo; details: Swiss mice treated with CPT-11; compared with mice that did not receive CPT-11
Description: After completion of blood counts, a thin smear of peripheral blood was made on a microscope slide, the smear was air-dried and was then stained for 5 minutes with 0.01 mg/ml acridine orange in phosphate buffered saline (pH 7.0). Micronuclei and polychomataphilic erythrocytes (PCE) were identified on the acridine orange stained smears of peripheral blood. Using fluorescent microscopy and a 100X oil objective, the mature erythrocytes, lacking either DNA or RNA are green, the RNA containing PCE are reddish and the DNA containing micronuclei are bright yellow. Fields containing a single layer of erythrocytes were identified. At least 8 standard fields (300, 400 or 500 cells) were identified on each slide and the number or micronuclei or PCEs were counted and recorded.

[7] = Coat quality (Example 1); assay type: in vivo; details: Swiss mice treated with CPT-11; compared with normal control group
Description: The group of mice that consumed the ‘normal’ diet containing 10% corn oil and 0% AAFA that were not treated with CPT-11 (normal control group) was compared to the groups of mice treated with CPT-11 that consumed each diet. […] Thus, the treatment helped return the animal grooming behavior closer to the normal untreated control group without CPT-11. This generally reflects that the animals were “feeling better”.

[8] = cited from earlier work
[9] = system: A549 human lung cancer xenografts; assay: Growth rate of A549 xenografts in nude mice (Example 3); assay type: in vivo
Description: A549 human lung cancer cells (American Type Culture Collection, Rockville, Md.) were cultured for injection in nude mice. The culture medium was an enriched L15:SMEM base media supplemented with other factors as described previously.
Twenty five male nude mice were allowed to acclimate for one week then were inoculated with tumor cells. The mice were housed under aseptic conditions (positive air pressure in a designated nude mouse room, cages, bedding, water and food were sterilized, cages had microisolator tops) in a temperature (24° C.) and light controlled (12 h light per day) room. All mouse handling was carried out under a laminar flow hood. Our Institutional Animal Care and Use Committee approved all animal use and handling before commencing the experiment. The animal care facilities are accredited by the American Association for the Accreditation of Laboratory Animal Care. Experimental Design-Cultured A549 cells were harvested, rinsed then suspended in serum-free L15:SMEM culture medium. Cells in suspension were counted using a hemocytometer and the cell count was adjusted to […]. The suspension was kept well mixed during the time of injection. […]
Tumor lengths and widths and body weights were measured three times weekly. […] Tumor sizes were calculated using the formula for the volume of a prolate spheroid, […]

[10] = patients or other mammals treated with CPT-11

In the case of `CCc1c2c(nc3ccc(OC(=O)N4CCC(N5CCCCC5)CC4)cc13)-c1cc3c(c(=O)n1C2)COC(=O)[C@]3(O)CC` [CPT-11, irinotecan hydrochloride], the “weight gained during the time of CPT-11 treatment” value [1] is reported as “not significantly different”, the “mean fecal water content (% of water in the feces)” value [2] is reported as “higher” and the “number of apoptotic cells in 10 duodenum crypts” value [3] is reported as “significantly increased”. The “liver weight as percent of body weight” value [4] was “significantly larger”, the hematocrit [5] was “significantly decreased” and the “red blood cell count” value [5] was “significantly decreased”. The “white blood cell count” value [5] was “significantly decreased”, the “micronuclei (MN) in the peripheral blood” value [6] was “significantly higher” and the “polychromataphilic erythrocytes (PCE) in the peripheral blood” value [6] was “significantly higher”. The coat quality [7] was “scruffy”, the patients with anemia [8, 10] was 67% and the patients with leukopenia [8, 10] was 91%. For the same molecule, the “patients reporting asthenia (tiredness or weakness)” value ([8]; side effect of CPT-11 treatment) was roughly 90%.
With `COc1cccc2c1C(=O)c1c(O)c3c(c(O)c1C2=O)C[C@@](O)(C(=O)CO)C[C@@H]3O[C@H]1C[C@H](N)[C@H](O)[C@H](C)O1` [DOX, doxorubicin] the “growth of A549 tumors” value ([9]; mice consuming corn oil, treated with DOX) was “halted the growth”.
In the case of ferric citrate [iron], the “effect of supplemental iron on A549 tumor growth” value ([9]; mice fed corn oil, supplemental iron and DOX) is reported as “counteracted the growth inhibitory effect”.
